Experimental data published in patent US20100168149A1, “Camptothecin Analogue Compounds, a Process for Their Preparation and Pharmaceutical Compositions Containing Them” (priority 2005, published 2010).

How the values were obtained:
[1] = test system: human colon carcinoma HT29; experiment: In vitro cytotoxicity, Microculture Tetrazolium Assay, HT29; assay type: cell-based; details: HT-29, HT29, 96 hours exposure, read-out: IC50 (concentration of cytotoxic agent which inhibits proliferation of the treated cells by 50%)
Method: (§1) The murine leukaemia L1210 and the human colon carcinomas HCT116 and HT29 were used in vitro. The cells are cultured in RPMI 1640 complete culture medium containing 10% foetal calf serum, 2 mM glutamine, 50 units/ml of penicillin, 50 μg/ml of streptomycin and 10 mM Hepes, pH=7.4. The cells are distributed on microplates and are exposed to the cytotoxic compounds for 4 doubling times, that is to say 48 hours (L1210) or 96 hours (HCT116 and HT29). The number of viable cells is then quantified by a […] assay, the Microculture Tetrazolium Assay (J. Carmichael et al., Cancer Res.; 47, 936-942, (1987)). The results are expressed in terms of the IC50 (the concentration of cytotoxic agent which inhibits proliferation of the treated cells by 50%).

[2] = test system: murine leukaemia L1210; experiment: In vitro cytotoxicity, Microculture Tetrazolium Assay, L1210; assay type: cell-based; details: Mus musculus; L1210, 48 hours exposure; read-out: IC50 (concentration of cytotoxic agent which inhibits proliferation of the treated cells by 50%)
Method: as §1

SMILES | IC50 [1] [nM] | IC50 [2] [nM]
CCC1(O)C(=O)Cc2c1cc1n(c2=O)Cc2c-1nc1cc3c(cc1c2-c1ccc(C)cc1)OCO3 (stereo not drawn) [Example 1, 7-Ethyl-7-hydroxy-2,3-methylenedioxy-13-(4-methylphenyl)-9,12-dihydro-7H-cyclopenta[6,7]indolizino[1,2-b]quinoline-8,10-dione] | 3.2 | –
CCC1(O)C(=O)Cc2c1cc1n(c2=O)Cc2c-1nc1cc3c(cc1c2-c1ccc(N(C)C)cc1)OCO3 (stereo not drawn) [Example 6, 7-Ethyl-2,3-methylenedioxy-7-hydroxy-13-[4-(dimethylamino)phenyl]-9,12-dihydro-7H-cyclopenta[6,7]indolizino[1,2-b]quinoline-8,10-dione] | 4.7 | 10.4
